Patent US8841321B2, “Quinoline derivatives as antibacterial agents” (Janssen Pharmaceutica NV, priority 2005, dated 2014)
Values after ≈ are worked out from the molar mass of the structure shown.

Columns and labels:
Test in all cases: Microtitre plate assay, IC90 determination
Format in all cases: cell-based
[1] = test system: SPN 6305 (Streptococcus pneumoniae (ATCC6305)); details: Streptococcus pneumoniae (ATCC6305)
Experimental: (§1) The bacteria used in this study were grown overnight in flasks containing 100 ml Mueller-Hinton Broth (Becton Dickinson—cat. no. 275730) in sterile de-ionized water, with shaking, at 37° C. Stocks (0.5 ml/tube) were stored at −70° C. until use. Bacteria titrations were performed in microtiter plates and colony forming units (CFUs) were determined. In general, an inoculum level of approximately 100 CFUs was used for susceptibility testing.
(§2) Flat-bottom, sterile 96-well plastic microtiter plates were filled with 180 μl of sterile deionized water, supplemented with 0.25% BSA. Subsequently, stock solutions (7.8× final test concentration) of compounds were added in 45 μl volumes in column 2. Serial five-fold dilutions (45 μl in 180 μl) were made directly in the microtiter plates from column 2 to reach column 11. Untreated control samples with (column 1) and without (column 12) inoculum were included in each microtiter plate. Depending on the bacteria type, approximately 10 to 60 CFU per well of bacteria inoculum (100 TCID50), in a volume of 100 μl in 2.8× Mueller-Hinton broth medium, was added to the rows A to H, except column 12. The same volume of broth medium without inoculum was added to column 12 in row A to H. The cultures were incubated at 37° C. for 24 hours under a normal atmosphere (incubator with open air valve and continuous ventilation). At the end of incubation, one day after inoculation, the bacterial growth was quantitated fluorometrically. Therefore resazurin (0.6 mg/ml) was added in a volume of 20 μl to all wells 3 hours after inoculation, and the plates were re-incubated overnight. A change in colour from blue to pink indicated the growth of bacteria. The fluorescence was read in a computer-controlled fluorometer (Cytofluor Biosearch) at an excitation wavelength of 530 nm and an emission wavelength of 590 nm. The % growth inhibition achieved by the compounds was calculated according to standard methods. The IC90 (expressed in μg/ml) was defined as the 90% inhibitory concentration for bacterial growth.

[2] = test system: STA 29213 (Staphylococcus aureus (ATCC29213)); details: Staphylococcus aureus (ATCC29213)
Experimental: as §1, §2

[3] = test system: STA RMETH (methicilline resistant Staphylococcus aureus (MRSA), a clinical isolate from the University of Antwerp)

Row | SMILES | IC90 (μg/ml) SPN 6305 [1] | IC90 (μg/ml) STA 29213 [2] | IC90 (μg/ml) STA RMETH [3] | IC90 ([3]; Staphylococcus aureus, MRSA, read-out: IC90 (μg/ml) STA RMETH)
1 | COc1nc2ccc(Br)cc2cc1C(c1ccccc1)C(O)(CCCCN(C)C(C)C)c1ccccc1 (single isomer, unassigned) [Compound 91] | 2.51 µg/mL (≈ 4.47 µM) | 2.24 µg/mL (≈ 3.99 µM) | 12.57 µg/mL (≈ 22.4 µM) | –
2 | COc1nc2ccc(Br)cc2cc1C(c1ccccc1)C(O)(CCCCN1CCNCC1)c1ccccc1 (racemic) [Compound 104] | 2.04 µg/mL (≈ 3.55 µM) | 1.82 µg/mL (≈ 3.17 µM) | 12.86 µg/mL (≈ 22.4 µM) | –
3 | COc1nc2ccc(Br)cc2cc1C(c1ccccc1)C(O)(CCCCN1CCN(C)CC1)CCC1CCCCC1 (single isomer, unassigned) [Compound 126] | 2.21 µg/mL (≈ 3.55 µM) | 4.41 µg/mL (≈ 7.08 µM) | 5.55 µg/mL (≈ 8.91 µM) | –
4 | COc1nc2ccccc2cc1C(c1ccccc1)C(O)(CCCCN(C)C)c1ccc2ccccc2c1 (stereo not drawn) [Compound 37] | 1.8 µg/mL (≈ 3.57 µM) | 2.0 µg/mL (≈ 3.96 µM) | – | 10.1 µg/mL (≈ 20 µM)
5 | COc1nc2ccc(Br)cc2cc1C(c1ccccc1)C(O)(CCCCN1CCCCC1)CCc1ccccc1 (single isomer, unassigned) [Compound 134] | 2.13 µg/mL (≈ 3.54 µM) | 4.26 µg/mL (≈ 7.08 µM) | 12 µg/mL (≈ 19.9 µM) | –
6 | COc1nc2ccc(Br)cc2cc1C(c1ccccc1)C(O)(CCCCN(C)C)c1cccc(F)c1 (racemic) [Compound 84] | 9.81 µg/mL (≈ 17.8 µM) | 1.74 µg/mL (≈ 3.16 µM) | 11 µg/mL (≈ 19.9 µM) | –
7 | COc1nc2ccc(-c3ccco3)cc2cc1C(c1ccccc1)C(O)(CCCCN(C)C)c1ccccc1 (racemic) [Compound 82] | 1.65 µg/mL (≈ 3.17 µM) | 1.65 µg/mL (≈ 3.17 µM) | 10.39 µg/mL (≈ 20 µM) | –
8 | COc1nc2ccc(Br)cc2cc1C(c1ccccc1)C(O)(CCCCN1CCNCC1)CCc1ccccc1 (single isomer, unassigned) [Compound 135] | 2.4 µg/mL (≈ 3.98 µM) | 1.91 µg/mL (≈ 3.17 µM) | 12.02 µg/mL (≈ 19.9 µM) | –
9 | CSc1nc2ccc(Br)cc2cc1C(c1ccccc1)C(O)(CCCCN(C)C)c1ccc2c(c1)OCO2 (racemic) [Compound 87] | 2.36 µg/mL (≈ 3.98 µM) | 1.88 µg/mL (≈ 3.17 µM) | 2.36 µg/mL (≈ 3.98 µM) | –
10 | COc1nc2ccc(Br)cc2cc1C(c1ccccc1)C(O)(CCCCN1CCCCC1)CCc1ccccc1.Cl (single isomer, unassigned) [Compound 133] | 2.13 µg/mL | 1.9 µg/mL | 12 µg/mL | –
11 | COc1nc2ccc(Br)cc2cc1C(c1ccccc1)C(O)(CCCCN1CCCCC1)CC(C)C (racemic) [Compound 122] | 1.96 µg/mL (≈ 3.54 µM) | 1.75 µg/mL (≈ 3.16 µM) | 11.05 µg/mL (≈ 20 µM) | –
12 | CCN(CC)CCCCC(O)(c1ccc2ccccc2c1)C(c1ccccc1)c1cc2cc(Br)ccc2nc1OC (racemic) [Compound 86] | 2.43 µg/mL (≈ 3.97 µM) | 2.17 µg/mL (≈ 3.55 µM) | 2.17 µg/mL (≈ 3.55 µM) | –
13 | COc1nc2c(C)c(Br)ccc2cc1C(c1ccccc1)C(O)(CCCCN(C)C)c1ccc2ccccc2c1 (racemic) [Compound 80] | 2.12 µg/mL (≈ 3.55 µM) | 1.89 µg/mL (≈ 3.16 µM) | 2.38 µg/mL (≈ 3.98 µM) | –
14 | COc1nc2ccc(Br)cc2cc1C(c1ccccc1)C(O)(CCCCN1CCC(N(C)C)CC1)CCc1ccccc1 (single isomer, unassigned) [Compound 140] | 4.56 µg/mL (≈ 7.07 µM) | 4.56 µg/mL (≈ 7.07 µM) | 2.57 µg/mL (≈ 3.99 µM) | –
15 | COc1nc2ccc(Br)cc2cc1C(c1ccccc1)C(O)(CCCCN1CCNCC1)c1ccccc1 (racemic) [Compound 105] | 2.29 µg/mL (≈ 3.99 µM) | 2.04 µg/mL (≈ 3.55 µM) | 11.46 µg/mL (≈ 19.9 µM) | –
16 | COc1nc2ccc(Br)cc2cc1C(c1ccccc1)C(O)(CCCCN1CCNCC1)CCc1ccccc1 (single isomer, unassigned) [Compound 136] | 2.4 µg/mL (≈ 3.98 µM) | 1.91 µg/mL (≈ 3.17 µM) | 5.37 µg/mL (≈ 8.91 µM) | –
17 | COc1nc2ccc(Br)cc2cc1C(c1ccccc1)C(O)(CCCCN(C)C)CCc1ccccc1 (single isomer, unassigned) [Compound 131] | 2.24 µg/mL (≈ 3.99 µM) | 1.78 µg/mL (≈ 3.17 µM) | 11.2 µg/mL (≈ 19.9 µM) | –
18 | COc1nc2ccc(Br)cc2cc1C(c1ccccc1)C(O)(CCCCN1CCCCC1)c1ccc2ccccc2c1 (racemic) [Compound 96] | 2.21 µg/mL (≈ 3.54 µM) | 4.42 µg/mL (≈ 7.09 µM) | 9.88 µg/mL (≈ 15.8 µM) | –
19 | COc1nc2ccc(Br)cc2cc1C(c1ccccc1)C(O)(CCCCc1ccccc1)CCCCN1CCCCC1 (single isomer, unassigned) [Compound 149] | 2.23 µg/mL (≈ 3.54 µM) | 1.99 µg/mL (≈ 3.16 µM) | – | –
20 | COc1nc2ccc(Br)cc2cc1C(c1ccccc1)C(O)(CCCCN1CCOCC1)c1ccccc1 (single isomer, unassigned) [Compound 116] | 2.04 µg/mL (≈ 3.54 µM) | 5.76 µg/mL (≈ 10 µM) | – | –
21 | COc1nc2ccccc2cc1C(c1ccc(-c2ccccc2)cc1)C(O)(CCCCN(C)C)c1ccc2ccccc2c1 (stereo not drawn) [Compound 176] | 2.06 µg/mL (≈ 3.55 µM) | 1.84 µg/mL (≈ 3.17 µM) | – | –
22 | COc1nc2ccc(Br)cc2cc1C(c1ccccc1)C(O)(CCCCN(C)C)CC(C)C (racemic) [Compound 118] | 5.14 µg/mL (≈ 10 µM) | 8.14 µg/mL (≈ 15.9 µM) | – | –
23 | COc1ccc(C(c2cc3cc(Br)ccc3nc2OC)C(O)(CCCCN2CCCCC2)c2ccccc2)cc1 (single isomer, unassigned) [Compound 166] | 1.91 µg/mL (≈ 3.16 µM) | 1.91 µg/mL (≈ 3.16 µM) | – | –
24 | COc1nc2ccc(Br)cc2cc1C(c1ccccc1)C(O)(CCCCN1CCN(C)CC1)c1ccccc1 (single isomer, unassigned) [Compound 110] | 4.68 µg/mL (≈ 7.95 µM) | 9.33 µg/mL (≈ 15.9 µM) | – | –
25 | COc1nc2ccc(Br)cc2cc1C(c1ccccc1)C(O)(CCCCN(C)C)c1cccnc1 (stereo not drawn) [Compound 16] | 8.5 µg/mL (≈ 15.9 µM) | 8.5 µg/mL (≈ 15.9 µM) | – | –
26 | COc1nc2ccc(Br)cc2cc1C(c1ccccc1)C(O)(CCCCc1ccccc1)CCCCN1CCCCC1 (single isomer, unassigned) [Compound 148] | 2.23 µg/mL (≈ 3.54 µM) | 1.99 µg/mL (≈ 3.16 µM) | – | –
27 | COc1nc2ccc(Br)cc2cc1C(c1ccccc1)C(O)(CCCCN(C)C)CCc1ccco1 (single isomer, unassigned) [Compound 130] | 6.19 µg/mL (≈ 11.2 µM) | 8.74 µg/mL (≈ 15.8 µM) | – | –
28 | COc1ccc(C(c2cc3cc(Br)ccc3nc2OC)C(O)(CCCCN(C)C)c2ccc3ccccc3c2)cc1 (single isomer, unassigned) [Compound 157] | 2.74 µg/mL (≈ 4.47 µM) | 2.44 µg/mL (≈ 3.98 µM) | – | –
29 | COc1nc2ccc(Br)cc2cc1C(c1ccccc1)C(O)(CCCCN(C)C)CCC(C)C (racemic) [Compound 119] | 4.19 µg/mL (≈ 7.94 µM) | 18.72 µg/mL (≈ 35.5 µM) | – | –
30 | COc1nc2ccc(Br)cc2cc1C(c1ccccc1)C(O)(CCCCN(C)C)CCC(C)C (racemic) [Compound 120] | 10.53 µg/mL (≈ 20 µM) | 8.36 µg/mL (≈ 15.8 µM) | – | –
